According to US6313153A, “Compositions and methods for treating nephritis and inhibiting TGF -β related conditions using pyridylacrylamide derivatives” (Tsumura & Co., priority 1997, dated 2001):
Counter-ions that a name gives are not always drawn.

Tests used:
anti-GBM nephritic mice = test: anti-GBM nephritic mice: proteinuria, serum cholesterol, blood urea nitrogen and serum creatinine; format: in vivo, BALB/c mice; conditions: for Total Evaluation: 3 × (number of + in proteinuria) + (number of + in serum parameter); for Proteinuria 5th day: 5th day from intravenous injection of anti-GBM serum; for Proteinuria 5th day / Proteinuria 10th day / Serum Parameter BUN (blood urea nitrogen) / Serum Parameter S-Ch (serum cholesterol) / Serum Parameter S-Cr (serum creatinine): oral; for Proteinuria 10th day: 10th day from intravenous injection of anti-GBM serum; for Serum Parameter BUN (blood urea nitrogen) / Serum Parameter S-Ch (serum cholesterol) / Serum Parameter S-Cr (serum creatinine): 11th day;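 as to Proteinuria 10th day: minus not effective plus trend double p<0.05 triple p<0.01 quadruple p<0.001 improvement vs control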;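 as to Proteinuria 5th day: minus not effective plus trend double p<0.05 triple p<0.01 quadruple p<0.001 improvement vs control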;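 as to Serum Parameter BUN (blood urea nitrogen): minus not effective plus trend double p<0.05 triple p<0.01 quadruple p<0.001 improvement vs control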;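 as to Serum Parameter S-Ch (serum cholesterol): minus not effective plus trend double p<0.05 triple p<0.01 quadruple p<0.001 improvement vs control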
Experimental: BALB/c mice (5 weeks old, purchased from Nippon Charles Liver) were quarantined and adapted for about 1 week before subjecting to experiments. These mice were divided into several groups for the experiments so that average body weights and standard deviations were almost identical in all groups. Mouse anti-GBM (glomerular basement membrane) nephritis was caused by immunizing the mice with rabbit γ-globulin (1 mg) with Freund's complete adjuvant and intravenously injecting rabbit anti-mouse GBM serum on the fifth day from the immunization. Each compound tested was forcedly orally administered via an oral sonde almost simultaneously with the intravenous injection of the anti-GBM serum. On the 5th and 10th days from the intravenous injection, urine was taken by a plastic metabolic cage and proteinuria was measured (Ohtsuka Tonein TP2). On the 11th day, blood was taken by cutting the carotid and serum cholesterol (S--Ch), blood urea nitrogen (BUN) and serum creatinine (S--Cr) were measured by Toshiba TBA-380 autoanalyzer.

total TGF-β1 = test: production of total TGF-β1 in glomeruli isolated from nephritic mice (ELISA); format: cell-based, BALB/c male mice; conditions: Mus musculus, 10^-6 M, 48 hours, supernatant acid treated, read-out: Inhibition rate (%) of production of total TGF-β1
Experimental: (§1) BALB/c male mice were adapted in a feeding chamber for 1 week before subjecting to experiments. Nephritis was induced by subcutaneously injecting an emulsion of rabbit γ-globulin and Freund's complete adjuvant on the back in a dose amount of 1.0 mg per mouse and, after 5 days (on the zeroth day), intravenously injecting rabbit anti-mouse GBM serum in a dose amount of 0.1 ml per mouse. After 1 day from the injection of anti-serum, the glomeruli were isolated through sieves with different sizes and washed twice. Each compound to be tested (10^-6 M) was added while the solvent was added to the control groups. The glomeruli were incubated in RPMI-1640 serum-free medium for 48 hours. The amount of production of active TGF-β1 was determined by measuring the supernatant itself after the incubation for 48 hours in ELSA method. Further, the supernatant was treated with hydrochloric acid and the pH was returned with sodium hydroxide. The total amount of TGF-β1 produced in the supernatant was measured in ELISA method. The protein concentration in the medium was also measured as glomeruli protein concentration. The inhibition rate was calculated by the following equation.
(§2) Inhibition rate (%)=100×(value of control group-value of sample)/(value of control group)

active TGF-β1 = test: production of active TGF-β1 in glomeruli isolated from nephritic mice (ELISA); format: cell-based, BALB/c male mice; conditions: Mus musculus, 10^-6 M, 48 hours, read-out: Inhibition rate (%) of production of active TGF-β1
Experimental: as §1, §2

TGF-β1 = test: Glomerular TGF-β1 Expression in IgA Nephropathy in Mice (immunohistochemical staining score); format: in vivo, Male ddY mice; conditions: for staining score (Index), glomerular TGF-β1: 5 weeks, Mean ± S.E.
Source text: Effects of the compounds of the present Invention on the Glomerular TGF-β1 Expression in IgA Nephropahty in Mice
Male ddY mice of 9 weeks old were used, each group consisting of 5 mice. One kidney was nephrectomized from the mice on the zero week, and carbon was intravenously injected from 1 week after the nephrectomy (once per week, total three times). In Experiment 1, administration was commenced on the final day of the intravenous injection of carbon. In Experiment 2, administration was commenced after the mice were allowed to stand for 10 weeks from the intravenous injection of carbon. In both Experiments, the administration was continued for 5 weeks and then the kidney was taken, fixed with […] and embedded in paraffin. Sliced specimens were stained as TGF-β1 positive area by the immunohistochemical analysis method using TGF-β1 antibody.
Staining was evaluated according to the Kagami et al. method (Kagami S., Border WA., Ruslahti E., Noble B.: Coordinated expression of β integrins and transforming growth factor-β induced matrix proteins in glomerulonephritis. Lab Invest 1993, 69, 68-76) and is shown as staining score (Index).

[1] = Experiment 2, 2.0 mg/kg, p < 0.05 vs control

COc1ccc(CCN(C)C(=S)/C=C/c2cccnc2)cc1OC [Compound 135, (E)-N-(3,4-dimethoxyphenethyl)-N-methyl-3-(3-pyridyl)-2-propenoic acid thioamide hydrochloride]
Total Evaluation (anti-GBM nephritic mice): 6 | Proteinuria 5th day (anti-GBM nephritic mice): - | Proteinuria 10th day (anti-GBM nephritic mice): + | Serum Parameter BUN (blood urea nitrogen) (anti-GBM nephritic mice): + | Serum Parameter S-Ch (serum cholesterol) (anti-GBM nephritic mice): + | Serum Parameter S-Cr (serum creatinine) (anti-GBM nephritic mice): + | inhibition at 1 µM (total TGF-β1): 47.1%

COc1ccc(CCN(C)C(=O)/C(C#N)=C/c2cccnc2)cc1OC [Compound 2]
Total Evaluation (anti-GBM nephritic mice): 13 | Proteinuria 5th day (anti-GBM nephritic mice): + | Proteinuria 10th day (anti-GBM nephritic mice): +++ | Serum Parameter BUN (blood urea nitrogen) (anti-GBM nephritic mice): - | Serum Parameter S-Ch (serum cholesterol) (anti-GBM nephritic mice): - | Serum Parameter S-Cr (serum creatinine) (anti-GBM nephritic mice): + | inhibition at 1 µM (total TGF-β1): 56.7%

O=C(/C=C/c1cccnc1)NCCc1cccc(O)c1 [Compound 81, (E)-N-(3-hydroxyphenethyl)-3-(3-pyridyl)-2-propenoic acid amide]
Total Evaluation (anti-GBM nephritic mice): 26 | Proteinuria 5th day (anti-GBM nephritic mice): +++ | Proteinuria 10th day (anti-GBM nephritic mice): +++ | Serum Parameter BUN (blood urea nitrogen) (anti-GBM nephritic mice): +++ | Serum Parameter S-Ch (serum cholesterol) (anti-GBM nephritic mice): +++ | Serum Parameter S-Cr (serum creatinine) (anti-GBM nephritic mice): ++ | inhibition at 1 µM (active TGF-β1): 58%

COc1ccc(CCN(C)C(=O)/C=C/c2cccnc2)cc1O [Compound 51]
inhibition at 1 µM (total TGF-β1): 56.8%

CCN(CCc1ccc(OC)c(OC)c1)C(=O)/C=C/c1cccnc1 [Compound 12]
Total Evaluation (anti-GBM nephritic mice): 8 | Proteinuria 5th day (anti-GBM nephritic mice): - | Proteinuria 10th day (anti-GBM nephritic mice): + | Serum Parameter BUN (blood urea nitrogen) (anti-GBM nephritic mice): + | Serum Parameter S-Ch (serum cholesterol) (anti-GBM nephritic mice): + | Serum Parameter S-Cr (serum creatinine) (anti-GBM nephritic mice): +++ | inhibition at 1 µM (total TGF-β1): 37.8%

COc1ccc(CCN(C)C(=O)/C(C)=C/c2cccnc2)cc1OC [Compound 62]
Total Evaluation (anti-GBM nephritic mice): 14 | Proteinuria 5th day (anti-GBM nephritic mice): - | Proteinuria 10th day (anti-GBM nephritic mice): +++ | Serum Parameter BUN (blood urea nitrogen) (anti-GBM nephritic mice): ++ | Serum Parameter S-Ch (serum cholesterol) (anti-GBM nephritic mice): +++ | Serum Parameter S-Cr (serum creatinine) (anti-GBM nephritic mice): + | inhibition at 1 µM (total TGF-β1): 31.9%

COc1ccc(CCN(C)C(=O)/C=C/c2cccnc2)cc1OC [Compound 84, (E)-N-(3,4-dimethoxyphenethyl)-N-methyl-3-(3-pyridyl)-2-propenoic acid amide]
Total Evaluation (anti-GBM nephritic mice): 23 | Proteinuria 5th day (anti-GBM nephritic mice): +++ | Proteinuria 10th day (anti-GBM nephritic mice): +++ | Serum Parameter BUN (blood urea nitrogen) (anti-GBM nephritic mice): +++ | Serum Parameter S-Ch (serum cholesterol) (anti-GBM nephritic mice): ++ | Serum Parameter S-Cr (serum creatinine) (anti-GBM nephritic mice): - | inhibition at 1 µM (active TGF-β1): 40% | inhibition at 1 µM (total TGF-β1): 85%

COc1ccc(CCN(C)C(=O)/C=C/c2ccccn2)cc1OC [Compound 153]
inhibition at 1 µM (total TGF-β1): 31%

COc1ccc(CCN(C)C(=O)/C=C/c2cccnc2)cc1 [Compound 49]
Total Evaluation (anti-GBM nephritic mice): 7 | Proteinuria 5th day (anti-GBM nephritic mice): - | Proteinuria 10th day (anti-GBM nephritic mice): + | Serum Parameter BUN (blood urea nitrogen) (anti-GBM nephritic mice): + | Serum Parameter S-Ch (serum cholesterol) (anti-GBM nephritic mice): + | Serum Parameter S-Cr (serum creatinine) (anti-GBM nephritic mice): ++ | inhibition at 1 µM (total TGF-β1): 59%

COc1ccc(CCN(C)C(=O)/C=C/c2cncc(Cl)c2)cc1OC [Compound 29]
Total Evaluation (anti-GBM nephritic mice): 16 | Proteinuria 5th day (anti-GBM nephritic mice): ++ | Proteinuria 10th day (anti-GBM nephritic mice): ++ | Serum Parameter BUN (blood urea nitrogen) (anti-GBM nephritic mice): + | Serum Parameter S-Ch (serum cholesterol) (anti-GBM nephritic mice): ++ | Serum Parameter S-Cr (serum creatinine) (anti-GBM nephritic mice): + | inhibition at 1 µM (total TGF-β1): 32.6%

O=C(O)COc1ccc(CCNC(=O)/C=C/c2cccnc2)cc1 [Compound 149]
inhibition at 1 µM (total TGF-β1): 35.9%

O=C(/C=C/c1cccnc1)NCCc1cccc(OCC(=O)NO)c1 [Compound 120]
inhibition at 1 µM (total TGF-β1): 56.9%

CCOC(=O)COc1cccc(CCNC(=O)/C=C/c2cccnc2)c1 [Compound 99]
Total Evaluation (anti-GBM nephritic mice): 21 | Proteinuria 5th day (anti-GBM nephritic mice): +++ | Proteinuria 10th day (anti-GBM nephritic mice): +++ | Serum Parameter BUN (blood urea nitrogen) (anti-GBM nephritic mice): + | Serum Parameter S-Ch (serum cholesterol) (anti-GBM nephritic mice): - | Serum Parameter S-Cr (serum creatinine) (anti-GBM nephritic mice): ++ | glomerular TGF-β1 expression (TGF-β1; Experiment 1): tendency of inhibiting glomerular TGF-β1 expression | % inhibition of Index (TGF-β1; Experiment 1, 0.1 mg/kg): 15% | staining score (Index), glomerular TGF-β1 (TGF-β1; Experiment 1, 0.1 mg/kg): 0.17 ± 0.04 | % inhibition of Index (TGF-β1; Experiment 1, 0.5 mg/kg): 35% | staining score (Index), glomerular TGF-β1 (TGF-β1; Experiment 1, 0.5 mg/kg): 0.13 ± 0.03 | % inhibition of Index (TGF-β1; Experiment 1, 2.0 mg/kg): 45% | staining score (Index), glomerular TGF-β1 (TGF-β1; Experiment 1, 2.0 mg/kg): 0.11 ± 0.03 | increase of Index (TGF-β1; Experiment 2): significantly inhibited the increase of Index | % inhibition of Index (TGF-β1; Experiment 2, 0.1 mg/kg): 29% | staining score (Index), glomerular TGF-β1 (TGF-β1; Experiment 2, 0.1 mg/kg): 0.29 ± 0.04 | staining score (Index), glomerular TGF-β1 (TGF-β1; [1]): 0.18 ± 0.05 | % inhibition of Index (TGF-β1; [1]): 56% | production of TGF-β1 in vivo (TGF-β1; Experiments 1 and 2, conclusion): inhibiting action on the production of TGF-β1 in vivo

COC(=O)c1cncc(/C=C/C(=O)N(C)CCc2ccc(OC)c(OC)c2)c1 [Compound 33]
Total Evaluation (anti-GBM nephritic mice): 7 | Proteinuria 5th day (anti-GBM nephritic mice): ++ | Proteinuria 10th day (anti-GBM nephritic mice): ++ | Serum Parameter BUN (blood urea nitrogen) (anti-GBM nephritic mice): - | Serum Parameter S-Ch (serum cholesterol) (anti-GBM nephritic mice): ++ | Serum Parameter S-Cr (serum creatinine) (anti-GBM nephritic mice): + | inhibition at 1 µM (total TGF-β1): 49.8%

O=C(O)COc1cccc(CCNC(=S)/C=C/c2cccnc2)c1 [Compound 151]
inhibition at 1 µM (total TGF-β1): 19.1%

COc1ccc(CCN(C)C(=O)/C=C/c2ccncc2)cc1OC [Compound 154]
inhibition at 1 µM (total TGF-β1): 53.4%

COc1cc(CCN(C)C(=O)/C=C/c2cccnc2)ccc1O [Compound 73]
Total Evaluation (anti-GBM nephritic mice): 22 | Proteinuria 5th day (anti-GBM nephritic mice): +++ | Proteinuria 10th day (anti-GBM nephritic mice): +++ | Serum Parameter BUN (blood urea nitrogen) (anti-GBM nephritic mice): + | Serum Parameter S-Ch (serum cholesterol) (anti-GBM nephritic mice): +++ | Serum Parameter S-Cr (serum creatinine) (anti-GBM nephritic mice): - | inhibition at 1 µM (active TGF-β1): 78% | inhibition at 1 µM (total TGF-β1): 84%

COc1ccc(CCNC(=O)/C=C/c2cccnc2)cc1OC [Compound 55]
Total Evaluation (anti-GBM nephritic mice): 17 | Proteinuria 5th day (anti-GBM nephritic mice): + | Proteinuria 10th day (anti-GBM nephritic mice): +++ | Serum Parameter BUN (blood urea nitrogen) (anti-GBM nephritic mice): ++ | Serum Parameter S-Ch (serum cholesterol) (anti-GBM nephritic mice): +++ | Serum Parameter S-Cr (serum creatinine) (anti-GBM nephritic mice): - | inhibition at 1 µM (total TGF-β1): 75.7%

O=C(O)COc1cccc(CCNC(=O)/C=C/c2cccnc2)c1 [Compound 148]
inhibition at 1 µM (active TGF-β1): 45% | inhibition at 1 µM (total TGF-β1): 78.3%

COc1ccc(CCN(C)C(=O)/C=C/c2cccnc2)cc1OC [Compound 140]
Total Evaluation (anti-GBM nephritic mice): 14 | Proteinuria 5th day (anti-GBM nephritic mice): + | Proteinuria 10th day (anti-GBM nephritic mice): ++ | Serum Parameter BUN (blood urea nitrogen) (anti-GBM nephritic mice): ++ | Serum Parameter S-Ch (serum cholesterol) (anti-GBM nephritic mice): ++ | Serum Parameter S-Cr (serum creatinine) (anti-GBM nephritic mice): +
